The subject of data set [1] is leukemia L1210 ("L1210") cells. In words: Cytotoxicity test, cellular proliferation of L1210 cells in suspension culture. The settings on record: Mus musculus, concentration decreasing cellular proliferation by 50%, 48 hour values. It counts as cell-based. The procedure: (§1) 2'-Deoxy-4'-thioribonucleosides were tested for antitumor activity against leukemia L1210 ("L1210") cells and human epidermoid carcinoma No. 2 ("H.Ep.-2") cells.
(§2) For L1210 cells the IC50 is the concentration required to decrease cellular proliferation by 50% as compared to untreated controls. The cells were grown in suspension cultures and the number of cells present was determined at 24 and 48 hours.
(§3) In the cytotoxicity tests, the lower the IC50 value, the greater the antitumor activity. […]

The next data set concerns HSV-2 (MS). As to the kind of experiment: CPE-inhibition assay against HSV-2 in Vero cell monolayers. The settings on record: for VR: Virus Rating, VR 1.0 or greater significant, 0.5-0.9 marginal, less than 0.5 inactive; for EC50: read-out: MIC50. It counts as cell-based, herpes simplex virus, Type 2. The procedure: (§4) 2'-Deoxy-4'-thioribonucleosides were tested for antiviral activity against viruses that replicate in mammalian cells growing in cell culture. The Virus Rating (VR) is a standard weighted measurement of antiviral activity which takes into account the degree of inhibition of virus-induced cytopathogenic effects (CPE) and the degree of cytotoxicity produced by the test compound, determined by a modification of the method of Ehrlich et al, Ann. N.Y. Acad. Sci. 130, 5-16 (1965) .
(§5) The CPE-inhibition assays were designed to test seven 0.5 log10 concentrations of each compound, beginning with 320 µg/mL, against HSV in triplicate 24-hour Vero cell monolayers in 96-well tissue culture plates. To each of the replicate cell cultures were dispensed 0.1 mL of the test compound solution (or suspension) and 0.1 mL of HSV suspension (diluted in medium to yield 32 CCID50 units per 0.1 mL). Cell controls, untreated virus-infected controls and drug cytotoxicity controls were included in each assay. […] The cell monolayers were examined microscopically for drug cytotoxicity and for CPE. which was graded on a scale of 0-4 (0-100% CPE).
(§6) The VR was calculated as 0.1 of the sum of the numerical differences between the recorded CPE grade of each test well and that of the corresponding virus control in the culture plate. Numerical differences between the scores of test wells containing a drug concentration which is partially cytotoxic and their corresponding virus controls were halved.
(§7) In tests carried out by this method, a greater value of VR indicates greater antiviral activity.
(§8) The MIC50 (minimum inhibitory concentration, 50%) is the concentration of a test compound required for 50% inhibition of virus-induced cytopathogenic effect calculated by using a regression analysis program for semilog curve fitting. MTC (minimum toxic concentration) is the minimum drug concentration (µg/ml) causing any cytotoxicity. TI is the therapeutic index, calculated by dividing the minimum cytotoxic drug concentration (MTC) by the minimum inhibitory concentration, 50% (MIC50). […]

For the next data set, the system named is HSV-1 (E377). As to the kind of experiment: CPE-inhibition assay against HSV-1 in Vero cell monolayers. It counts as cell-based, herpes simplex virus, Type 1. The settings on record: for EC50: read-out: MIC50; for VR: Virus Rating, VR 1.0 or greater significant, 0.5-0.9 marginal, less than 0.5 inactive; for TI: therapeutic index, MTC divided by MIC50, HSV-1 (E377). Here is the method: as §4, §5, §6, §7, §8

Data set [2] has as its system human epidermoid carcinoma No. 2 ("H.Ep.-2") cells. In words: Cytotoxicity test, colony formation of H.Ep.-2 cells. It is filed as cell-based. The settings on record: HEp-2, 240 h, concentration reducing colony formation by 50%, 10 days incubation. The procedure:
as §1
(§9) For H.Ep.-2 cells, the IC50 is the concentration required to reduce colony formation by 50% as compared to controls. One hundred cells in 10 mL of medium were placed in prescription bottles, and after 10 days incubation, the medium was decanted and the colonies were stained and counted.
as §3

The next data set in a line: in vitro. It is filed as cell-based. The settings on record: monkey, vero cells. The procedure:
(§10) The CPE-inhibition assays were designed to test seven 0.5 log10 concentrations of each compound, beginning with 320 µg/mL, against HSV in triplicate 24-hour Vero cell monolayers in 96-well tissue culture plates. […] Cell controls, untreated virus-infected controls and drug cytotoxicity controls were included in each assay. […] The cell monolayers were examined microscopically for drug cytotoxicity and for CPE. which was graded on a scale of 0-4 (0-100% CPE). The MIC50 (minimum inhibitory concentration, 50%) is the concentration of a test compound required for 50% inhibition of virus-induced cytopathogenic effect calculated by using a regression analysis program for semilog curve fitting. MTC (minimum toxic concentration) is the minimum drug concentration (µg/ml) causing any cytotoxicity. TI is the therapeutic index, calculated by dividing the minimum cytotoxic drug concentration (MTC) by the minimum inhibitory concentration, 50% (MIC50). […]

The test system of another data set is Vero cell monolayers. In words: in vitro. The settings on record: monkey, vero cells. It counts as cell-based. Here is the method: as §10
The test system of data set [3] is either H.Ep.-2 or L1210 cells, or both. As to the kind of experiment: Cytotoxicity tests, summary statements that do not fix the cell line. It counts as cell-based. The settings on record: text statement on Table 2, cell line not fixed. The procedure: as §1, §2, §9, §3
Where [4] appears, read: Human alphaherpesvirus 1, 50% inhibition of virus-induced cytopathogenic effect, HSV-1 (E377), Vero cells, unit not given for MIC50 (MTC in µg/ml, TI = MTC/MIC50).

Values after ≈ are worked out from the molar mass of the structure shown. Like-named read-outs stand apart in the source and are kept apart here.

Usually IC50 stands for the point on the concentration scale where inhibition reaches its midpoint.

Consider `Cc1cn([C@@H]2C[C@H](O)[C@@H](CO)S2)c(=O)[nH]c1=O` [1-(2-Deoxy-4-thio-α-D-ribofuranosyl)-thymine], for which the IC50 in data set [1] turned out to be 20 µg/mL (≈ 77.4 µM); in data set [2] it was 2.7 µg/mL (≈ 10.5 µM). Further, the VR is reported as 0.3 in the data set with HSV-2 (MS) (HSV-2 (MS), Vero cells) and 1.4 in the data set with HSV-1 (E377) (HSV-1 (E377), Vero cells). The EC50 in the data set on HSV-1 (E377) (setting [4]) was 100 µg/mL (≈ 388 µM). Also, in the data set with HSV-1 (E377) (statement in words on the tests of Table 1), the “antiviral activity against herpes simplex Type 1” value is recorded as “definite antiviral activity”. The TI with HSV-1 (E377) is 2.3 -. The MCC in “in vitro” is greater than 257 µg/mL. In the data set on Vero cell monolayers, the MIC was >257.2 >257.2 µg/ml.
Regarding `Nc1nc2c(ncn2COCCO)c(=O)[nH]1` [Acyclovir, reference compound], the EC50 stood at 3.6 µg/mL (≈ 16 µM) in the data set with HSV-2 (MS) (Human alphaherpesvirus 2, 50% inhibition of virus-induced cytopathogenic effect, HSV-2 (MS), Vero cells, unit not given for MIC50 (MTC in µg/ml, TI = MTC/MIC50)) and 0.5 µg/mL (≈ 2.22 µM) in the data set on HSV-1 (E377) (setting [4]). In addition, the VR with HSV-2 (MS) (HSV-2 (MS), Vero cells) was determined as 4.8; in the data set with HSV-1 (E377) (HSV-1 (E377), Vero cells), 6.7. Besides, in the data set on HSV-1 (E377), the TI is given as greater than 441. Also, the MCC in “in vitro” was greater than 225 µg/mL. In the data set with Vero cell monolayers, the MIC is >225.2 >225.2 µg/ml.
Regarding `Nc1ncnc2c1ncn2[C@@H]1O[C@H](CO)[C@@H](O)[C@@H]1O` [Ara-A, 9-β-D-arabinofuranosyladenine, reference compound], the EC50 with HSV-2 (MS) (Human alphaherpesvirus 2, Vero) is 39.3 µg/mL (≈ 147 µM); in the data set with HSV-1 (E377) (Human alphaherpesvirus 1, Vero) it was 15.2 µg/mL (≈ 56.9 µM). Also, the VR in the data set with HSV-2 (MS) (HSV-2 (MS), Vero cells) is given as 1.1; with HSV-1 (E377) (HSV-1 (E377), Vero cells) it was 1.8. Besides, the TI worked out at 2.2 with HSV-2 (MS) (therapeutic index, MTC divided by MIC50, HSV-2 (MS)) and 5.6 with HSV-1 (E377). Also, the MCC in the data set “in vitro” is 84.8 µg/mL.
Turning to `Cc1cn([C@H]2C[C@H](O)[C@@H](CO)S2)c(=O)[nH]c1=O` [1-(2'-Deoxy-4'-thio-β-D-ribofuranosyl)thymine], the IC50 in data set [1] is 0.025 µg/mL (≈ 0.0968 µM); in data set [3], less than 1 µg/mL; in data set [2] it was 0.075 µg/mL (≈ 0.29 µM). The VR turned out to be 0.1 in the data set with HSV-2 (MS) (HSV-2 (MS), Vero cells) and 1.3 in the data set with HSV-1 (E377) (HSV-1 (E377), Vero cells). Also, the EC50 in the data set with HSV-1 (E377) (setting [4]) was 0.8 µg/mL (≈ 3.1 µM). Besides, the TI in the data set with HSV-1 (E377) is listed as 3.2 -. The same molecule displayed an MCC in the data set “in vitro” of 2.6 µg/mL.

These data come from patent EP0491793B1, “2'-DEOXY-4'-THIORIBONUCLEOSIDES AS ANTIVIRAL AND ANTICANCER AGENTS” (Southern Research Institute, priority 1989, dated 1991).
